Experiments:
Candida albicans = experiment: Antifungal activity against Candida albicans MTCC 227 assessed as zone of inhibition at 100 ug/ml by well diffusion assay; format: functional; conditions: read-out: IZ
Staphylococcus aureus = experiment: Antibacterial activity against Staphylococcus aureus MTCC 96 assessed as zone of inhibition at 50 ug/ml by well diffusion assay; format: functional; conditions: read-out: IZ
[1] = test system: Staphylococcus epidermidis; experiment: Antibacterial activity against Staphylococcus epidermidis MTCC 435 assessed as zone of inhibition at 50 ug/ml by well diffusion assay; format: functional; conditions: read-out: IZ
Escherichia coli = experiment: Antibacterial activity against Escherichia coli MTCC 443 assessed as zone of inhibition at 50 ug/ml by well diffusion assay; format: functional; conditions: read-out: IZ
Aspergillus niger = experiment: Antifungal activity against Aspergillus niger MTCC 282 assessed as zone of inhibition at 100 ug/ml by well diffusion assay; format: functional; conditions: read-out: IZ
Rhizopus arrhizus = experiment: Antifungal activity against Rhizopus oryzae MTCC 262 assessed as zone of inhibition at 100 ug/ml by well diffusion assay; format: functional; conditions: read-out: IZ
Saccharomyces cerevisiae = experiment: Antifungal activity against Saccharomyces cerevisiae MTCC 36 assessed as zone of inhibition at 100 ug/ml by well diffusion assay; format: functional; conditions: read-out: IZ
Pseudomonas aeruginosa = experiment: Antibacterial activity against Pseudomonas aeruginosa MTCC 741 assessed as zone of inhibition at 50 ug/ml by well diffusion assay; format: functional; conditions: read-out: IZ
[2] = Cytotoxicity against human QSG7701 cells assessed as inhibition of cell growth incubated for 48 hrs by MTT assay; format: toxicity, cell-based
Bel-7402 = experiment: Cytotoxicity against human Bel-7402 cells assessed as inhibition of cell growth incubated for 48 hrs by MTT assay; format: functional, cell-based; conditions: Bel-7402, 48 h
SMMC-7721 = experiment: Antiproliferative activity against human SMMC-7721 cells assessed as inhibition of cell proliferation incubated for 48 hrs by MTT assay; format: functional, cell-based; conditions: SMMC-7721, 48 h
MDA-MB-231 = experiment: Antiproliferative activity against human MDA-MB-231 cells assessed as inhibition of cell proliferation incubated for 48 hrs by MTT assay; format: functional, cell-based; conditions: MDA-MB-231, 48 h
[3] = Antiproliferative activity against human QSG7701 cells assessed as inhibition of cell proliferation incubated for 48 hrs by MTT assay; format: toxicity, cell-based
HepG2 = experiment: Antiproliferative activity against human HepG2 cells assessed as inhibition of cell proliferation incubated for 48 hrs by MTT assay; format: functional, cell-based; conditions: HepG2, 48 h
HCT-116 = experiment: Antiproliferative activity against human HCT-116 cells assessed as inhibition of cell proliferation incubated for 48 hrs by MTT assay; format: functional, cell-based; conditions: HCT-116, 48 h
K562 = experiment: Antiproliferative activity against human K562 cells assessed as inhibition of cell proliferation incubated for 48 hrs by MTT assay; format: functional, cell-based; conditions: K562, 48 h

SMILES	zone of inhibition at 100 µg/mL (Candida albicans) [mm]	zone of inhibition at 50 µg/mL (Staphylococcus aureus) [mm]	zone of inhibition at 50 µg/mL [1] [mm]	zone of inhibition at 50 µg/mL (Escherichia coli) [mm]	zone of inhibition at 100 µg/mL (Aspergillus niger) [mm]	zone of inhibition at 100 µg/mL (Rhizopus arrhizus) [mm]	zone of inhibition at 100 µg/mL (Saccharomyces cerevisiae) [mm]	zone of inhibition at 50 µg/mL (Pseudomonas aeruginosa) [mm]	IC50 at 48 h [2] [µM]	IC50 (Bel-7402) [µM]	also measured
CCC1=C(C(=O)Oc2ccccc2)C(CN2C(=O)c3cccc4cccc(c34)C2=O)NC(=O)N1 (configuration not stated)	12	15	15	12	12	12	12	12	–	–	–
CCOC(=O)C1=C(CC)NC(=S)NC1CN1C(=O)c2cccc3cccc(c23)C1=O (configuration not stated)	12	15	15	12	12	12	12	12	–	–	–
COC(=O)C1=C(C)NC(=O)NC1CN1C(=O)c2cccc3cccc(c23)C1=O (configuration not stated)	12	15	15	12	12	12	12	12	–	–	–
NCCCNCCCCNCCCN1C(=O)c2cccc3c(Br)ccc(c23)C1=O	–	–	–	–	–	–	–	–	> 50	1.06	–
CN(C)CCN1C(=O)c2cccc3cc(NC(=O)NCCCNCCCNCCCCN)cc(c23)C1=O	–	–	–	–	–	–	–	–	–	–	IC50 (SMMC-7721): > 50 µM; IC50 (MDA-MB-231): > 50 µM; IC50 at 48 h [3]: > 50 µM; IC50 (HepG2): > 50 µM; IC50 (HCT-116): > 50 µM; IC50 (K562): > 50 µM
COC(=O)C1=C(C)NC(=S)NC1CN1C(=O)c2cccc3cccc(c23)C1=O (configuration not stated)	12	15	15	12	12	12	12	12	–	–	–
NCCCCNCCCCNCCCCN1C(=O)c2cccc3cc([N+](=O)[O-])cc(c23)C1=O	–	–	–	–	–	–	–	–	> 50	1.06	–
NCCCNCCCNCCCN1C(=O)c2cccc3cc(N)cc(c23)C1=O	–	–	–	–	–	–	–	–	> 50	1.06	–
Clc1ccccc1C(c1ccccc1)(c1ccccc1)n1ccnc1 [CLOTRIMAZOLE]	22	–	–	–	22	22	22	–	–	–	–
NCCCNCCCNCCCN1C(=O)c2cccc3c(Cl)ccc(c23)C1=O	–	–	–	–	–	–	–	–	> 50	1.06	–
CCC1=C(C(=O)OC(F)(F)F)C(CN2C(=O)c3cccc4cccc(c34)C2=O)NC(=S)N1 (configuration not stated)	12	15	15	12	12	12	12	12	–	–	–
CN(C)CCN1C(=O)c2cccc3cc(NC(=O)CNCCCCNCCCCNCCCCN)cc(c23)C1=O	–	–	–	–	–	–	–	–	–	–	IC50 (SMMC-7721): 6.42 µM; IC50 (MDA-MB-231): 6.42 µM; IC50 at 48 h [3]: 6.42 µM; IC50 (HepG2): 6.42 µM; IC50 (HCT-116): 6.42 µM; IC50 (K562): 6.42 µM
CCC1=C(C(=O)OC)C(CN2C(=O)c3cccc4cccc(c34)C2=O)NC(=O)N1 (configuration not stated)	12	15	15	12	12	12	12	12	–	–	–
NCCCNCCCCNCCCCN1C(=O)c2cccc3cccc(c23)C1=O	–	–	–	–	–	–	–	–	> 50	1.06	–
CN(C)CCN1C(=O)c2cccc3cc(NC(=O)NCCCN)cc(c23)C1=O	–	–	–	–	–	–	–	–	–	–	IC50 (SMMC-7721): > 50 µM; IC50 (MDA-MB-231): > 50 µM; IC50 at 48 h [3]: > 50 µM; IC50 (HepG2): > 50 µM; IC50 (HCT-116): > 50 µM; IC50 (K562): > 50 µM
CN(C)CCNCC(=O)Nc1cc2c3c(cccc3c1)C(=O)N(CCN(C)C)C2=O	–	–	–	–	–	–	–	–	–	–	IC50 (SMMC-7721): 6.42 µM; IC50 (MDA-MB-231): 6.42 µM; IC50 at 48 h [3]: 6.42 µM; IC50 (HepG2): 6.42 µM; IC50 (HCT-116): 6.42 µM; IC50 (K562): 6.42 µM
CN(C)CCN1C(=O)c2cccc3cc(NC(=O)NCCCCN)cc(c23)C1=O	–	–	–	–	–	–	–	–	–	–	IC50 (SMMC-7721): > 50 µM; IC50 (MDA-MB-231): > 50 µM; IC50 at 48 h [3]: > 50 µM; IC50 (HepG2): > 50 µM; IC50 (HCT-116): > 50 µM; IC50 (K562): > 50 µM
CCC1=C(C(=O)Oc2ccccc2)C(CN2C(=O)c3cccc4cccc(c34)C2=O)NC(=S)N1 (configuration not stated)	12	15	15	12	12	12	12	12	–	–	–
NCCCNCCCCNCCCN1C(=O)c2cccc3cc(N)cc(c23)C1=O	–	–	–	–	–	–	–	–	> 50	1.06	–

From ChEMBL document CHEMBL5244223, “l,8-Naphthalimide based DNA intercalators and anticancer agents. A systematic review from 2007 to 2017” (Eur J Med Chem, 2018)
